Source: publication PMC3145970, “Specific CLK Inhibitors from a Novel Chemotype for Regulation of Alternative Splicing” (Chemistry & Biology, 2011)
Like-named read-outs stand apart in the source and are kept apart here.

Key:
Assay in all cases: Thermal stability shift assay
Type in all cases: binding
CDK8 = CDK8 (Homo sapiens, UniProt P49336); details: read-out: Tm shift CDK8
Summary of the method: (§1)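 Protein at 2 μM was heated with 10 μM inhibitor in 10 mM HEPES pH 7.5, 500 mM NaCl containing SyproOrange (1:1000 dilution); thermal denaturation was followed by fluorescence in a real-time PCR instrument.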

DRAK1 = molecular target: T1, DRAK1 (Homo sapiens, UniProt Q9UEE5); details: read-out: Tm shift DRAK1
T1 construct: purchased in-house (SGC Oxford thermal shift panel)
T1 sequence (Q9UEE5 1-414): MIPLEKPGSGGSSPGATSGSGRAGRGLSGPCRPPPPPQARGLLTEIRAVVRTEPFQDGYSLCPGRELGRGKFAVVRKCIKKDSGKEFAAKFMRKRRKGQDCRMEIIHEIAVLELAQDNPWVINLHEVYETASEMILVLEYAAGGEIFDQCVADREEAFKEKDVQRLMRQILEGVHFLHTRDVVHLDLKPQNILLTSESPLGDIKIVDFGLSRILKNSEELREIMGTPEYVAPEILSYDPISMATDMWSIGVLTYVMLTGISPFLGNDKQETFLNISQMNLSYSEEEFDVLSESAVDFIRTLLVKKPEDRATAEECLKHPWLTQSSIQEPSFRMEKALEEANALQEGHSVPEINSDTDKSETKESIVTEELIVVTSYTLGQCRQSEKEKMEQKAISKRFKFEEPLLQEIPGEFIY
Summary of the method: as §1

GAK = molecular target: T2, GAK (Homo sapiens, UniProt O14976); details: read-out: Tm shift GAK
T2 construct: purchased in-house (SGC Oxford thermal shift panel)
T2 sequence (O14976 1-1311): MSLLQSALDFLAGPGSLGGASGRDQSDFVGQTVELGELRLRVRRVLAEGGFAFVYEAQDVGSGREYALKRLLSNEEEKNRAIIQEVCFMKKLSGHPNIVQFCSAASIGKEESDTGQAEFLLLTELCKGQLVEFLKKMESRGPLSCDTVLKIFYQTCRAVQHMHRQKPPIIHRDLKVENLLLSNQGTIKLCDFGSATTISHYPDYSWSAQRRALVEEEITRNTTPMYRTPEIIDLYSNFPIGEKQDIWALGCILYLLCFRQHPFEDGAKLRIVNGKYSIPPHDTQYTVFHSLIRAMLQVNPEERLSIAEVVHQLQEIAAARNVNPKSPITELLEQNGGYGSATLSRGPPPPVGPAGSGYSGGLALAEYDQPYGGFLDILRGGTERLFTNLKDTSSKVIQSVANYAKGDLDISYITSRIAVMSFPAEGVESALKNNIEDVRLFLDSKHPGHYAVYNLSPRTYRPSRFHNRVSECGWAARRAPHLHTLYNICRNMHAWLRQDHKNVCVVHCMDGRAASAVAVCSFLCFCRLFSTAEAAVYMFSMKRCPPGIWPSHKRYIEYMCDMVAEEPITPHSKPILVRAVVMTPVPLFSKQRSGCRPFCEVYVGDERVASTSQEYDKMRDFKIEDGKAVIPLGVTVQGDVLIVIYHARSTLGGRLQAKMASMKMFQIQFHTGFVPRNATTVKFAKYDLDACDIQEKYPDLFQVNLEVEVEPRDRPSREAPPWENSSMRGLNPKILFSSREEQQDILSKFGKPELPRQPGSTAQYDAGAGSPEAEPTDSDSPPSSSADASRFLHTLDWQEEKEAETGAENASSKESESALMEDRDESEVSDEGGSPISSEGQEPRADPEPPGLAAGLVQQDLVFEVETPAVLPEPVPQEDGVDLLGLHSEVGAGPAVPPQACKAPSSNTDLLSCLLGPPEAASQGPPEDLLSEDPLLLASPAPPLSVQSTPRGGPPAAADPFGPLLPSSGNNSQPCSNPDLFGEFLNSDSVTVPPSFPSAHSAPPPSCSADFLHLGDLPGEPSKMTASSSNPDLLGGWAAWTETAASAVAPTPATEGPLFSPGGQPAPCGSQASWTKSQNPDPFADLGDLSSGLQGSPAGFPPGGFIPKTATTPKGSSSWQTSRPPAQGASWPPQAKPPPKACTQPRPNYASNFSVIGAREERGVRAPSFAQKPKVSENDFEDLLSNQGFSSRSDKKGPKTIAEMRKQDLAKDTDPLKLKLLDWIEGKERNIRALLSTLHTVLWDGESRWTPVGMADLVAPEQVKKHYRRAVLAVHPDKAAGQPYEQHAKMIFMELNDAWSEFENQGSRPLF
Summary of the method: as §1

JNK2 = molecular target: T3, JNK2 (Homo sapiens, UniProt P45984); details: read-out: Tm shift JNK2
T3 construct: purchased in-house (SGC Oxford thermal shift panel)
T3 sequence (P45984 whole entry): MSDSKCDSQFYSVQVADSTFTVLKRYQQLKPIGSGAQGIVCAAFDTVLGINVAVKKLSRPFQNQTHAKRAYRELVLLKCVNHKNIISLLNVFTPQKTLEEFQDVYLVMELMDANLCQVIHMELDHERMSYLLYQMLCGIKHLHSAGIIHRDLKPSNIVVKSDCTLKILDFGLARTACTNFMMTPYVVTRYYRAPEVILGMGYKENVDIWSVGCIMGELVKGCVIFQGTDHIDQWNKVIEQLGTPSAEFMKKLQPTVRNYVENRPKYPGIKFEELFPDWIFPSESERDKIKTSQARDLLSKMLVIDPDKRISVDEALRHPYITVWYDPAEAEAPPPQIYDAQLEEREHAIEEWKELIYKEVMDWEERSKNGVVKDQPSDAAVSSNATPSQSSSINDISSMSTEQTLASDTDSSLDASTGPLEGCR
Summary of the method: as §1

PBK = molecular target: T4, PBK (Homo sapiens, UniProt Q96KB5); details: read-out: Tm shift PBK
T4 construct: purchased in-house (SGC Oxford thermal shift panel)
T4 sequence (Q96KB5 1-322): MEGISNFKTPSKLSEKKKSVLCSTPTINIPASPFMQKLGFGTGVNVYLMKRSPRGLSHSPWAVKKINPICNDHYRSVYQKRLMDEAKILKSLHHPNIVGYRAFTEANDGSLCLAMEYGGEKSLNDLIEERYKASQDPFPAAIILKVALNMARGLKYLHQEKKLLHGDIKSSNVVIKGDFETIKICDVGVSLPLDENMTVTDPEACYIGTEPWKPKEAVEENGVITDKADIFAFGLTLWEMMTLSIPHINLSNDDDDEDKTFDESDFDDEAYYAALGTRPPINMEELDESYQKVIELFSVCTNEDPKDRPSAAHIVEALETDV
Summary of the method: as §1

PIM2 = PIM2 (Homo sapiens, UniProt Q9P1W9); details: read-out: Tm shift PIM2
Sequence of PIM2 (Q9P1W9 whole entry): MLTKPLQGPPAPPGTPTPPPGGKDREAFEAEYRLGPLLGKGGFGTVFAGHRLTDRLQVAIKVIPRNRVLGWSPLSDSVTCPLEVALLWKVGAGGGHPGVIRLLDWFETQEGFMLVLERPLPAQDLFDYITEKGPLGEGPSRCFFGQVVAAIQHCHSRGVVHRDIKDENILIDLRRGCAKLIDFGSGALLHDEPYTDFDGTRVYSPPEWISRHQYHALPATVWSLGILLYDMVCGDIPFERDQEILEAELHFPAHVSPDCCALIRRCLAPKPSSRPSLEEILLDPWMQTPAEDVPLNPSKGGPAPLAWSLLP
Summary of the method: as §1

PIM3 = PIM3 (Homo sapiens, UniProt Q86V86); details: read-out: Tm shift PIM3
Summary of the method: as §1

STK33 = STK33 (Homo sapiens, UniProt Q9BYT3); details: read-out: Tm shift STK33
Sequence of STK33 (Q9BYT3 whole entry): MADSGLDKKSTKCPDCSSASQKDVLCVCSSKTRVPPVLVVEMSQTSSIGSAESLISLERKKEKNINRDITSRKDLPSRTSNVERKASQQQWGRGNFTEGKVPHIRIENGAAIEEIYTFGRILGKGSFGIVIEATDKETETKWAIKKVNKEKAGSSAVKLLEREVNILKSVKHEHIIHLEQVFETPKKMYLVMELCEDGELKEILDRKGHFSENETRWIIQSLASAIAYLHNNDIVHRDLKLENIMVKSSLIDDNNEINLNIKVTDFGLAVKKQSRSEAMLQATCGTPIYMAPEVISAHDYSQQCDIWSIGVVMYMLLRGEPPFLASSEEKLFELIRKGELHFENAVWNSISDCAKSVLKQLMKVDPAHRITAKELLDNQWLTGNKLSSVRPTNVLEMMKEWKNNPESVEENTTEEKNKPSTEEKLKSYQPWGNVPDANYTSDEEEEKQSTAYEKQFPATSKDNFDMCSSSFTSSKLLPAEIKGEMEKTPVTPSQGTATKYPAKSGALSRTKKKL
Summary of the method: as §1

smMLCK = smMLCK (Homo sapiens, UniProt Q15746); details: read-out: Tm shift smMLCK
Sequence of smMLCK (Q15746 whole entry): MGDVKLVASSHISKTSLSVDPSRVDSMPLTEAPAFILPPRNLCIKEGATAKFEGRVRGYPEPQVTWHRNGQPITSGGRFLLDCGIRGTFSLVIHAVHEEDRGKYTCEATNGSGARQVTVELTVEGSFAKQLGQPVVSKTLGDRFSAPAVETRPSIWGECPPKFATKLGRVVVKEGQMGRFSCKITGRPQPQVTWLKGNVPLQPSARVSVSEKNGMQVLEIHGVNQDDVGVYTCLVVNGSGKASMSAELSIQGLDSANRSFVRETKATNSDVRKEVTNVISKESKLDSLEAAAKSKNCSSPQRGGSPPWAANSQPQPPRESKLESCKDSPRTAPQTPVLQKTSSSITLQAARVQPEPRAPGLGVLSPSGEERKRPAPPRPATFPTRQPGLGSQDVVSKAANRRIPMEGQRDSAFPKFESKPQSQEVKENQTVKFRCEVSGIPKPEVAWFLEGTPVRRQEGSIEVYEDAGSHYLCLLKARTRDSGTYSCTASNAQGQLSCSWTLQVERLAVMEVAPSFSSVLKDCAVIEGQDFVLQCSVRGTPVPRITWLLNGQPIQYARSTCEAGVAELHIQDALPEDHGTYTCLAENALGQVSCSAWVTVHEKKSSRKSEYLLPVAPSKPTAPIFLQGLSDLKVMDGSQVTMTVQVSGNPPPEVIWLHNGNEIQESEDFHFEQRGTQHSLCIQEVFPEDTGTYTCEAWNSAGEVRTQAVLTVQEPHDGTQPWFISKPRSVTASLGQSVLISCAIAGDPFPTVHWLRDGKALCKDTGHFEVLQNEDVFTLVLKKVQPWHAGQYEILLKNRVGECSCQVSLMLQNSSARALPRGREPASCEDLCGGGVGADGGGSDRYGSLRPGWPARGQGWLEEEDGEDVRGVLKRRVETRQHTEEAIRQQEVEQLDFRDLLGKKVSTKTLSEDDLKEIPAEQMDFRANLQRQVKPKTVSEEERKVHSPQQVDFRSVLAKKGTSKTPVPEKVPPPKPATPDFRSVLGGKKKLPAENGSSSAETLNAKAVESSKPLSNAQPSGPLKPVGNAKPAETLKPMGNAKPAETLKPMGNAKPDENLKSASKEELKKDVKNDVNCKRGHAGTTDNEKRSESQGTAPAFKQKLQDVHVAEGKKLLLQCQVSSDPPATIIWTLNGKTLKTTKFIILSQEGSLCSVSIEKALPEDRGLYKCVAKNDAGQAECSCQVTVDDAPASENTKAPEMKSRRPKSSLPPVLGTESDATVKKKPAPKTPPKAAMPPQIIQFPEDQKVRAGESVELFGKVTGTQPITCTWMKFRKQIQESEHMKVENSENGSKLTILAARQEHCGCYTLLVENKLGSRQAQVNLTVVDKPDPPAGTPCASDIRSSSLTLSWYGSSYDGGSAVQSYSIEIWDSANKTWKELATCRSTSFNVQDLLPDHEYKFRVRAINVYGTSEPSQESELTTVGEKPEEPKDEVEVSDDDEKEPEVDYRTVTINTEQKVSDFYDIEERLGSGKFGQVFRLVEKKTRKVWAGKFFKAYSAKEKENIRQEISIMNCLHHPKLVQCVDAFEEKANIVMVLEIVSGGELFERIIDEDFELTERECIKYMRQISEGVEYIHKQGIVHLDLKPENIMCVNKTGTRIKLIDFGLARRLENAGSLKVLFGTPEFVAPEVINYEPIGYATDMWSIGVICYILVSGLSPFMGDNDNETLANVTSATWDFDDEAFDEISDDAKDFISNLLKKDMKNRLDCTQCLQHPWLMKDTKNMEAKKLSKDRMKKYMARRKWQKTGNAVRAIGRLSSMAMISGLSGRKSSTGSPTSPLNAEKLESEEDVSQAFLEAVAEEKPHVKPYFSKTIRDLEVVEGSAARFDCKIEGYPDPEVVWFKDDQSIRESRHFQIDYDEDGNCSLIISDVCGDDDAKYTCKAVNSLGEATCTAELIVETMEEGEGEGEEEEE
Summary of the method: as §1

Sequence of CDK8 (P49336 whole entry): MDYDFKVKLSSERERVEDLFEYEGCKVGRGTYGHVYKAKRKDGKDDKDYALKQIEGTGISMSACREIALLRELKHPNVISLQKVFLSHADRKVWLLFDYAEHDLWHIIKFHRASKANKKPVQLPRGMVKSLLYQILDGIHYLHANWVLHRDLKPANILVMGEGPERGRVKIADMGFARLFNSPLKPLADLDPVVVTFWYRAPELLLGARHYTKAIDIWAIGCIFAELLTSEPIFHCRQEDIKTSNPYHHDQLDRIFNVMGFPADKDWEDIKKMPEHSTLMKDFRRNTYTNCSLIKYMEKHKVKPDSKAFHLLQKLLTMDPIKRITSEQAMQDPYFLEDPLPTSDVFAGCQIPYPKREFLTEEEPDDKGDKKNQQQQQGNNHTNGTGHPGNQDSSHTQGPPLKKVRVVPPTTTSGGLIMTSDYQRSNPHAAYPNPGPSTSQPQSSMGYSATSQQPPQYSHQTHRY

Row | Compound | ΔTm at 10 µM (CDK8) | ΔTm at 10 µM (DRAK1) | ΔTm at 10 µM (GAK) | ΔTm at 10 µM (JNK2) | ΔTm at 10 µM (PBK) | ΔTm at 10 µM (PIM2) | ΔTm at 10 µM (PIM3) | ΔTm at 10 µM (STK33) | ΔTm at 10 µM (smMLCK) | ΔTm at 10 µM (CDK8; inhibitor 10 μM) | ΔTm at 10 µM (DRAK1; inhibitor 10 μM) | ΔTm at 10 µM (GAK; inhibitor 10 μM) | ΔTm at 10 µM (JNK2; inhibitor 10 μM) | ΔTm at 10 µM (PBK; inhibitor 10 μM) | ΔTm at 10 µM (PIM2; inhibitor 10 μM) | ΔTm at 10 µM (PIM3; inhibitor 10 μM) | ΔTm at 10 µM (STK33; inhibitor 10 μM) | ΔTm at 10 µM (smMLCK; inhibitor 10 μM)
1 | CCOC(=O)c1c(C(C#N)=CN)c2ccc(Cl)c(Cl)c2n1C (mixture of isomers) [KH-CB20, (E/Z)-Ethyl 3-(2-Amino-1-Cyanovinyl)-6,7-Dichloro-1-Methyl-1H-Indole-2-Carboxylate] | 1.3 °C | 2.6 °C | 0.8 °C | 0.5 °C | -0.1 °C | 2.1 °C | 2.8 °C | 0.8 °C | 0.6 °C | – | – | – | – | – | – | – | – | –
2 | CCOC(=O)c1c(C(C#N)=CN(C)C)c2ccc(Cl)c(Cl)c2n1C (mixture of isomers) [compound 2, (E/Z)-Ethyl 6,7-Dichloro-3-[1-Cyano-2-(Dimethylamino)Vinyl]-1-Methyl-1H-Indole-2-Carboxylate] | – | – | – | – | – | – | – | – | – | 0.4 °C | -0.2 °C | 0.4 °C | -0.2 °C | -0.9 °C | 0.8 °C | 3.2 °C | 0.7 °C | 1.1 °C
3 | NC1=NC(=O)/C(=C2\CCNC(=O)c3[nH]c(Br)cc32)N1 [Hymenialdisine, hymenialdisine, reference compound] | – | – | – | – | – | – | – | – | – | 0.1 °C | 14.8 °C | 3.8 °C | -0.1 °C | -0.4 °C | 3.5 °C | 3.8 °C | 3.9 °C | 1.9 °C
4 | CCOC(=O)c1c(/C(C#N)=C\N)c2ccc(Cl)c(Cl)c2n1C [KH-CB19, (E)-Ethyl 3-(2-Amino-1-Cyanovinyl)-6,7-Dichloro-1-Methyl-1H-Indole-2-Carboxylate] | 1.5 °C | 2.5 °C | 0.4 °C | -0.2 °C | -0.3 °C | 2.1 °C | 3.1 °C | 0.3 °C | 0.5 °C | – | – | – | – | – | – | – | – | –
5 | Cn1c2c(Cl)c(Cl)ccc2c2c(C#N)c[nH]c(=O)c21 [compound 3, 7,8-Dichloro-9-Methyl-1-Oxo-2,9-Dihydro-1H-Pyrido[3,4-b]Indole-4-Carbonitrile] | – | – | – | – | – | – | – | – | – | 2.5 °C | 1.7 °C | 0.8 °C | -0.5 °C | -0.4 °C | 3 °C | 4.2 °C | 1.1 °C | 0.5 °C
